The results in this text go back to US20180072738A1, “SOLVATED FORMS OF A BRUTON'S TYROSINE KINASE INHIBITOR” (Pharmacyclics LLC, priority 2015, published 2018).

Data set [1] is described as follows: Storage stability of the crystalline form at 40° C./75% RH (XRPD). Type of data set: physicochemical. As to conditions: for crystalline form after storage: storage at 40° C. and 75% RH, duration not stated. Here is the method: X-Ray powder diffraction patterns were collected on a Bruker AXS C2 GADDS or Bruker AXS D8 diffractometer.
X-Ray Powder Diffraction patterns were collected on a Bruker AXS C2 GADDS diffractometer using Cu Ka radiation (40 kV, 40 mA), automated XYZ stage, laser video microscope for auto-sample positioning and a Hi Star 2-dimensional area detector. X-ray optics consists of a single Gobel multilayer mirror coupled with a pinhole collimator of 0.3 mm. A weekly performance check is carried out using a certified standard NIST 1976 Corundum (flat plate). The beam divergence, i.e. the effective size of the X-ray beam on the sample, was approximately 4 mm. A θ-θ continuous scan mode was employed with a sample-detector distance of 20 cm which gives an effective 2θ range of 3.2°-29.7°. Typically the sample would be exposed to the X-ray beam for 120 seconds. The software used for data collection was GADDS for XP/2000 4.1.43 and the data were analysed and presented using Diffrac Plus EVA v15.0.0.0.
X-Ray Powder Diffraction patterns were collected on a Bruker D8 diffractometer using Cu Ka radiation (40 kV, 40 mA), θ-2θ goniometer, and divergence of V4 and receiving slits, a Ge monochromator and a Lynxeye detector. The instrument is performance checked using a certified Corundum standard (NIST 1976). The software used for data collection was Diffrac Plus XRD Commander v2.6.1 and the data were analysed and presented using Diffrac Plus EVA v15.0.0.0. Samples were run under ambient conditions as flat plate specimens using powder as received. The sample was gently packed into a cavity cut into polished, zero-background (510) silicon wafer. The sample was rotated in its own plane during analysis. The details of the data collection are: • Angular range: 2 to 42° 2θ • Step size: 0.05° 2θ • Collection time: 0.5 s/step

The subject of the next data set is OCILy10. Description: Induction of apoptosis in OCI-Ly10 (caspase activation, Annexin-V flow cytometry, sub-G0 fraction). Particulars: increase in sub-G0 fraction. Format: cell-based. Background: In flow cytometry, cells or beads pass a laser one at a time.
Another data set concerns OCI-Ly10. Description: Growth inhibition of OCI-Ly10 (ABC-DLBCL) cells. Type of data set: cell-based. As to conditions: Homo sapiens.

Molecules are shown by their SMILES. pEC50: −log10 of the molar value. Like-named read-outs stand apart in the source and are kept apart here.

Turning to `C=CC(=O)N1CCC[C@@H](n2nc(-c3ccc(Oc4ccccc4)cc3)c3c(N)ncnc32)C1` [listing 1 of 3 here], the “crystalline form after storage” value in data set [1] (listed as 1,1,2-trichloroethane solvate of Compound 1) is on record as “changes to a Form A”.
For `C=CC(=O)N1CCC[C@@H](n2nc(-c3ccc(Oc4ccccc4)cc3)c3c(N)ncnc32)C1` [listing 2 of 3 here], in data set [1] (one week storage at 40° C./75% RH, XRPD), the Crystallinity after storage entry is “unaffected”.
As for `C=CC(=O)N1CCC[C@@H](n2nc(-c3ccc(Oc4ccccc4)cc3)c3c(N)ncnc32)C1` [listing 3 of 3 here], the “crystalline form after storage” value in data set [1] (listed as benzyl acetate solvate of Compound 1) is listed as “does not change”.
On to `C=CC(=O)N1CCC[C@@H](n2nc(-c3ccc(Oc4ccccc4)cc3)c3c(N)ncnc32)C1` [Compound 1, 1-((R)-3-(4-amino-3-(4-phenoxyphenyl)-1H-pyrazolo[3,4-d]pyrimidin-1-yl)piperidin-1-yl)prop-2-en-1-one], for which, in the data set with OCILy10, the induction of apoptosis entry is “observed”. The pEC50 (commonly −log10 of the EC50, conventionally taken in molar units) is 7.30 with OCI-Ly10 (OCI-Ly10, 1 hour pulse, read-out: EC50 1 hour pulse (growth of OCI-Ly10)) and 8.00 with OCI-Ly10 (OCI-Ly10, continuous exposure, read-out: EC50 continuous exposure (growth of OCI-Ly10)).
